One data set relates to EBOV. To be noted: 20 µM; cited from earlier work.
A further data set concerns host cells. The conditions noted are these: cited from earlier work.
Data set [1] deals with HeLa cells. To be noted: human.
The subject of data set [2] is HeLa cells. To be noted: human. The source holds these as a separate data set.
The subject of another data set is MARV Ci67 isolate. The data set is classed as cell-based, Marburg (MARV).
Another data set has as its system EBOV Zaire-95 isolate. The class given is cell-based, Ebola (EBOV).

The values that follow come from publication PMC3446762 (Viruses, 2012).

With `Cc1cc(NCCN2CCOCC2)c2c(ccc3c2ccc2nc(C)cc(NCCN4CCOCC4)c23)n1` [Compound 1], the EBOV inhibition in the data set with EBOV is 53%. Further, the “toxicity to host cells” value in the data set on host cells was “non-toxic to host cells”.
In the case of `CCN(CC)CCCNc1cc(C)nc2ccc3c(ccc4nc(C)cc(NCCCN(CC)CC)c43)c12` [Compound 2], the EBOV inhibition with EBOV is reported as 13%. Moreover, the “toxicity to host cells” value in the data set with host cells is “toxic to host cells”.
As to `CCN(CC)CCCNc1ccnc2ccc3c(ccc4nccc(NCCCN(CC)CC)c43)c12` [Compound 4], the “cellular toxicity (reduction in cell number), EBOV assay” value with HeLa cells [1] is listed as 80–90%. Also, the “cellular toxicity (reduction in cell number), MARV assay” value with HeLa cells [2] is 80–90%. In the data set with MARV Ci67 isolate, the “cellular protection during MARV infection” value was determined as 100%. For the same compound, in the data set on EBOV Zaire-95 isolate, the “cellular protection during EBOV infection” value is 100%.
